Reference: patent US8114866B2, “Derivatives of 1-piperazine- and 1-homopiperazine-carboxylates, preparation method thereof and use of same as inhibitors of the FAAH enzyme” (Sanofi-Aventis, priority 2003, dated 2012)

Experiments:
[1] = molecular target: T1, enzyme FAAH (Fatty Acid Amido Hydrolase) (Mus musculus, UniProt O08914); assay: radioenzymatic test of FAAH inhibition (hydrolysis of anandamide [ethanolamine 1-3H], mouse brain membrane homogenates); format: biochemical; conditions: anandamide 10 μM, 15 minutes at 25° C., read-out: IC50 (concentration inhibiting 50% of the control enzymatic activity of FAAH)
T1 construct: The membrane homogenates are prepared extemporaneously by homogenizing the tissues with a Polytron machine; from tissue; host or cells: mouse brain (minus cerebellum) membrane homogenate
T1 sequence (O08914 1-579): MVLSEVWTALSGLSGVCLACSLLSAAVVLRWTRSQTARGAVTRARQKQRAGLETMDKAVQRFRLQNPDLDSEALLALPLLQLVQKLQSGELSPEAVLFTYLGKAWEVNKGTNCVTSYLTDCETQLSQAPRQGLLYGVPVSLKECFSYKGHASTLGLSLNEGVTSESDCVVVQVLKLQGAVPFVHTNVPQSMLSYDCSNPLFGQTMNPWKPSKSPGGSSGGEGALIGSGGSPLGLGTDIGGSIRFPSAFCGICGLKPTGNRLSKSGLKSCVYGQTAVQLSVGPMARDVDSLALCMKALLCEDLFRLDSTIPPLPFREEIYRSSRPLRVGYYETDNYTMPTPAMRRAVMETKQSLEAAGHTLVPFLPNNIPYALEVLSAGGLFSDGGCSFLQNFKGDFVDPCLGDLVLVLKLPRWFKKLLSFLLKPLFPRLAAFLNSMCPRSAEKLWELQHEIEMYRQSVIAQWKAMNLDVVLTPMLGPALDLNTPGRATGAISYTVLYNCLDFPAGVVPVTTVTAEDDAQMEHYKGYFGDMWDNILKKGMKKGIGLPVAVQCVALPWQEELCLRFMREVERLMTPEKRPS
Protocol: The compounds of the invention were subjected to pharmacological tests to determine their inhibitory effect on the enzyme FAAH (Fatty Acid Amido Hydrolase).
Thus, mouse brains (minus the cerebellum) are removed and stored at −80° C. The membrane homogenates are prepared extemporaneously by homogenizing the tissues with a Polytron machine in 10 mM Tris-HCl buffer (pH 8) containing 150 mM NaCl and 1 mM EDTA. The enzymatic reaction is then performed in 70 μl of buffer containing fatty-acid-free bovine serum albumin (1 mg/ml). The various test compounds at different concentrations, anandamide [ethanolamine 1-^3H] (specific activity of 15-20 Ci/mmol) diluted to 10 μM with cold anandamide, and the membrane preparation (400 μg of thawed tissue per test) are successively added. After 15 minutes at 25° C., the enzymatic reaction is quenched by adding 140 μL of chloroform/methanol (2:1). The mixture is stirred for 10 minutes and then centrifuged for 15 minutes at 3500×g. An aliquot (30 μL) of the aqueous phase containing the ethanolamine [1-^3H] is counted by liquid scintillation.

male OF1 mice = assay: test of analgesia: abdominal stretching induced by PBQ (phenylbenzoquinone) i.p.; format: in vivo; conditions: 1 mg/kg p.o. at 2 hours, PBQ 2 mg/kg i.p.
Protocol: It is thus seen that the compounds according to the invention have inhibitory activity on the enzyme FAAH. The in vivo activity of the compounds of the invention was evaluated in a test of analgesia.
Thus, the intraperitoneal (i.p.) administration of PBQ (phenylbenzoquinone, 2 mg/kg in a 0.9% sodium chloride solution containing 5% ethanol) to male OF1 mice weighing 25 to 30 g causes abdominal stretching, on average 30 twists or contractions in the period from 5 to 15 minutes after injection. The test compounds are administered orally as a 0.5% suspension in Tween 80, 60 minutes or 120 minutes before the administration of PBQ. Under these conditions, the most powerful compounds of the invention reduce the number of stretches induced by PBQ by 35 to 70%, in a dosage range of between 1 and 30 mg/kg.

Row | melting point [°C] | IC50 [1] [nM] | Structure (SMILES) | Reduction of the number of stretches (%) (male OF1 mice)
1 | – | 20 | CNC(=O)COC(=O)N1CCN(c2ccc(-c3ccc(Cl)cc3)cc2)CC1 [Compound 34] | –
2 | 197 to 198 | – | Cc1ccc(-c2ccc([N+](=O)[O-])cc2)cc1 [Compound 36] | –
3 | 203 to 206 | – | Cc1ccc(-c2ccc(Cl)cc2)cn1 [Compound 75] | –
4 | 206 to 209 | – | CNC(=O)COC(=O)N1CCN(c2ccc(-c3ccc(C(F)(F)F)cc3)cn2)CC1 [Compound 79, 2-(methylamino)-2-oxoethyl 4-{5-[4-(trifluoromethyl)phenyl]-2-pyridyl}-1-piperazinecarboxylate] | –
5 | 188 to 190 | 12 | CNC(=O)COC(=O)N1CCN(c2ccc(-c3ccc(OC(F)(F)F)cc3)cn2)CC1 [Compound 83, 2-(methylamino)-2-oxoethyl 4-(5-{4-[(trifluoromethyl)oxy]phenyl}-2-pyridyl)-1-piperazinecarboxylate] | –
6 | 204 to 206 | – | Cc1ccc(-c2ccc(Cl)cc2)cn1 [Compound 98] | –

Further lines, the compound ahead of its results:

Row | Structure (SMILES) | melting point [°C] | IC50 [1] [nM] | Reduction of the number of stretches (%) (male OF1 mice)
7 | Cc1cc(F)cc2c1OCCC2 [Compound 15] | 189 to 190 | – | –
8 | CNC(=O)COC(=O)N1CCN(c2ccc(-c3cccc(C(F)(F)F)c3)cc2)CC1 [Compound 37, 2-(methylamino)-2-oxoethyl 4-[3′-(trifluoromethyl)-4-biphenylyl]-1-piperazinecarboxylate] | 129 to 130 | 190 | −57 (a) %
9 | CCOc1ccc(-c2ccc(N3CCN(C(=O)OCC(=O)NC)CC3)cc2)cc1 [Compound 43] | – | 44 | –
10 | CNC(=O)COC(=O)N1CCN(c2ccc(-c3ccc(OC(F)(F)F)cc3)cc2)CC1 [Compound 44, 2-(methylamino)-2-oxoethyl 4-{4′-[(trifluoromethyl)oxy]-4-biphenyl}-1-piperazinecarboxylate] | 187 to 189 | 7 | −53 (a) %
11 | CNC(=O)COC(=O)N1CCN(c2ccc(CC(C)C)cn2)CC1 [Compound 63, 2-(methylamino)-2-oxoethyl 4-[5-(2-methylpropyl)-2-pyridyl]-1-piperazinecarboxylate] | 127 to 129 | – | –
12 | CNC(=O)COC(=O)N1CCN(c2ccc(CC(C)C)nc2)CC1 [Compound 66, 2-(methylamino)-2-oxoethyl 4-[6-(2-methylpropyl)-3-pyridyl]-1-piperazinecarboxylate] | 87 to 89 | – | –
13 | CNC(=O)COC(=O)N1CCN(c2ccc(-c3cccc(C(F)(F)F)c3)cn2)CC1 [Compound 76, 2-(methylamino)-2-oxoethyl 4-{5-[3-(trifluoromethyl)phenyl]-2-pyridyl}-1-piperazinecarboxylate] | 158 to 160 | 290 | −47 (a) %
14 | CNC(=O)COC(=O)N1CCN(c2ccc(-c3cccc(C(F)(F)F)c3)nc2)CC1 [Compound 85, 2-(methylamino)-2-oxoethyl 4-{6-[3-(trifluoromethyl)phenyl]-3-pyridyl}-1-piperazinecarboxylate] | 146 to 150 | – | –
15 | NC(=O)COC(=O)N1CCN(c2ccc(-c3cccc(C(F)(F)F)c3)nc2)CC1 [Compound 86, 2-amino-2-oxoethyl 4-{6-[3-(trifluoromethyl)phenyl]-3-pyridyl}-1-piperazinecarboxylate] | 155 to 157 | – | –
16 | CNC(=O)COC(=O)N1CCN(c2ccc(-c3cccc(C(F)(F)F)c3)nn2)CC1 [Compound 87, 2-(methylamino)-2-oxoethyl 4-{6-[3-(trifluoromethyl)phenyl]-3-pyridazinyl}-1-piperazinecarboxylate] | 151 to 153 | – | –
17 | CNC(=O)COC(=O)N1CCCN(c2ccc(-c3ccc(OC(F)(F)F)cc3)cn2)CC1 [Compound 103, 2-(methylamino)-2-oxoethyl 4-(5-{4-[(trifluoromethyl)oxy]phenyl}-2-pyridyl)-1,4-diazepane-1-carboxylate] | 191 to 193 | – | –
